# Numbered stars: 1 amine (or outer) side, 2 acyl side, 3 side chain; on linkers, the order of the positions; unused ones are H or OH. Bridge positions count the residues as written; N and C are the ends. Square brackets hold non-standard residues; d marks the D form. Side chains are listed from the residue outwards. Peptide text beside a SMILES is read from it. * marks the point of attachment. X1 = C[C@@H](O)[C@H](CN([C@@H](CCN)C(=O)[*:2])[*:1])N[*:3]; Octanoyl(6-Me) = CCC(C)CCCCC(=O)*; Dab = NCC[C@H](N)C(=O)O
# Legend:
# Staphylococcus aureus [1] = assay: Antimicrobial activity against Staphylococcus aureus YZSA-15 harboring erythromycin resistance rRNA methylase C and vancomycin resistance locus assessed as inhibition of visible growth of bacteria incubated for 20 hrs by broth microdilution method; assay type: functional
# Enterococcus faecalis [2] = assay: Antimicrobial activity against Enterococcus faecalis JH2-2 assessed as inhibition of visible growth of bacteria incubated for 20 hrs by broth microdilution method; assay type: functional
# Enterococcus faecium [3] = assay: Antimicrobial activity against Enterococcus faecium MC38 harboring erythromycin resistance rRNA methylase B and oxazolidinone-phenicol transferable resistance gene assessed as inhibition of visible growth of bacteria incubated for 20 hrs by broth microdilution method; assay type: functional
# Acinetobacter baumannii [4] = assay: Antimicrobial activity against Acinetobacter baumannii 7979 assessed as inhibition of visible growth of bacteria incubated for 20 hrs by broth microdilution method; assay type: functional
# Enterococcus faecium [5] = assay: Antimicrobial activity against Enterococcus faecium HFY01 assessed as inhibition of visible growth of bacteria incubated for 20 hrs by broth microdilution method; assay type: functional
# Salmonella enteritidis = assay: Antimicrobial activity against Salmonella enteritis S1 assessed as inhibition of visible growth of bacteria incubated for 20 hrs by broth microdilution method; assay type: functional, Salmonella enterica subsp. enterica serovar Enteritidis; details: Salmonella enterica
# Enterococcus faecalis [6] = assay: microbe, parasite or virus in culture; assay type: functional; details: SF23-1, time 20 hrs
# Description: Antimicrobial activity against Enterococcus faecalis SF23-1 harboring erythromycin-resistance rRNA methylase B, tetracycline efflux protein L and chloramphenicol-florfenicol resistance methylase assessed as inhibition of visible growth of bacteria incubated for 20 hrs by broth microdilution method
# Pseudomonas aeruginosa [7] = assay: Antimicrobial activity against Pseudomonas aeruginosa PA01 assessed as inhibition of visible growth of bacteria incubated for 20 hrs by broth microdilution method; assay type: functional
# Streptococcus agalactiae = assay: Antimicrobial activity against Streptococcus agalactiae DL03 harboring erythromycin-resistance rRNA methylase B assessed as inhibition of visible growth of bacteria incubated for 20 hrs by broth microdilution method; assay type: functional
# Staphylococcus aureus [8] = assay: microbe, parasite or virus in culture; assay type: functional; details: M147-2, time 20 hrs
# Description: Antimicrobial activity against Staphylococcus aureus M147-2 harboring erythromycin resistance rRNA methylase B, tetracycline efflux protein L and chloramphenicol-florfenicol resistance methylase assessed as inhibition of visible growth of bacteria incubated for 20 hrs by broth microdilution method
# Staphylococcus aureus [9] = assay: Antimicrobial activity against Staphylococcus aureus YZSA-24 harboring erythromycin resistance rRNA methylase C and methicillin resistance gene resistance locus assessed as inhibition of visible growth of bacteria incubated for 20 hrs by broth microdilution method; assay type: functional
# Enterococcus faecalis [10] = assay: Antimicrobial activity against Enterococcus faecalis J2 harboring erythromycin-resistance rRNA methylase B and oxazolidinone phenicol transferable resistance gene assessed as inhibition of visible growth of bacteria incubated for 20 hrs by broth microdilution method; assay type: functional
# Acinetobacter baumannii [11] = assay: Antimicrobial activity against Acinetobacter baumannii AB11 assessed as inhibition of visible growth of bacteria incubated for 20 hrs by broth microdilution method; assay type: functional
# Enterococcus faecalis [12] = assay: Antimicrobial activity against Enterococcus faecalis ES01 harboring erythromycin-resistance rRNA methylase B and vanB-type vancomycin-resistance locus assessed as inhibition of visible growth of bacteria incubated for 20 hrs by broth microdilution method; assay type: functional
# Staphylococcus aureus [13] = assay: Antimicrobial activity against Staphylococcus aureus YZSA-21 harboring erythromycin resistance rRNA methylase C assessed as inhibition of visible growth of bacteria incubated for 20 hrs by broth microdilution method; assay type: functional
# Streptococcus suis [14] = assay: Antimicrobial activity against Streptococcus suis P1/7 assessed as inhibition of visible growth of bacteria incubated for 20 hrs by broth microdilution method; assay type: functional
# Staphylococcus aureus [15] = assay: Antimicrobial activity against Staphylococcus aureus ATCC 29213 assessed as inhibition of visible growth of bacteria incubated for 20 hrs by broth microdilution method; assay type: functional
# Enterococcus faecium [16] = assay: Antimicrobial activity against Enterococcus faecium QF31 harboring erythromycin resistance rRNA methylase B and chloramphenicol-florfenicol resistance methylase assessed as inhibition of visible growth of bacteria incubated for 20 hrs by broth microdilution method; assay type: functional
# Staphylococcus aureus [17] = assay: microbe, parasite or virus in culture; assay type: functional; details: M92-1, time 20 hrs
# Description: Antimicrobial activity against Staphylococcus aureus M92-1 harboring erythromycin resistance rRNA methylase B, tetracycline efflux protein L and oxazolidinone-phenicol transferable resistance gene assessed as inhibition of visible growth of bacteria incubated for 20 hrs by broth microdilution method
# Streptococcus suis [18] = assay: microbe, parasite or virus in culture; assay type: functional; details: SH0918, time 20 hrs
# Description: Antimicrobial activity against Streptococcus suis SH0918 harboring erythromycin-resistance rRNA methylase B, tetracycline efflux protein O and oxazolidinone phenicol transferable resistance gene assessed as inhibition of visible growth of bacteria incubated for 20 hrs by broth microdilution method
# Streptococcus pyogenes = assay: Antimicrobial activity against Streptococcus pyogenes DL02 harboring erythromycin-resistance rRNA methylase B assessed as inhibition of visible growth of bacteria incubated for 20 hrs by broth microdilution method; assay type: functional
# Klebsiella pneumoniae = assay: Antimicrobial activity against Klebsiella pneumoniae 9-1 assessed as inhibition of visible growth of bacteria incubated for 20 hrs by broth microdilution method; assay type: functional
# Pseudomonas aeruginosa [19] = assay: Antimicrobial activity against Pseudomonas aeruginosa PA14 assessed as inhibition of visible growth of bacteria incubated for 20 hrs by broth microdilution method; assay type: functional
# Escherichia coli = assay: Antimicrobial activity against Escherichia coli ATCC 25922 assessed as inhibition of visible growth of bacteria incubated for 20 hrs by broth microdilution method; assay type: functional
Compound,MIC (Staphylococcus aureus [1]),MIC (Enterococcus faecalis [2]),MIC (Enterococcus faecium [3]),MIC (Acinetobacter baumannii [4]),MIC (Enterococcus faecium [5]),MIC (Salmonella enteritidis),MIC (Enterococcus faecalis [6]),MIC (Pseudomonas aeruginosa [7]),MIC (Streptococcus agalactiae),MIC (Staphylococcus aureus [9]),MIC (Enterococcus faecalis [10]),MIC (Acinetobacter baumannii [11]),MIC (Enterococcus faecalis [12]),MIC (Staphylococcus aureus [13]),MIC (Streptococcus suis [14]),MIC (Staphylococcus aureus [15]),MIC (Enterococcus faecium [16]),MIC (Streptococcus pyogenes),MIC (Klebsiella pneumoniae),MIC (Pseudomonas aeruginosa [19]),also measured
CNC(C)[C@@H]1CC[C@@H](N)[C@@H](O[C@H]2[C@H](O)[C@@H](O[C@H]3OC[C@](C)(O)[C@H](NC)[C@H]3O)[C@H](N)C[C@@H]2N)O1.CN[C@@H]1[C@@H](O)[C@@H](O[C@@H]2[C@@H](O)[C@H](O[C@H]3O[C@H](C(C)N)CC[C@H]3N)[C@@H](N)C[C@H]2N)OC[C@]1(C)O.CN[C@@H]1[C@@H](O)[C@@H](O[C@@H]2[C@@H](O)[C@H](O[C@H]3O[C@H](CN)CC[C@H]3N)[C@@H](N)C[C@H]2N)OC[C@]1(C)O (stereo partly specified),0.5 µg/mL,4 µg/mL,> 32 µg/mL,> 32 µg/mL,< 0.06 µg/mL,0.25 µg/mL,8 µg/mL,0.125 µg/mL,16 µg/mL,0.5 µg/mL,8 µg/mL,< 0.06 µg/mL,> 32 µg/mL,0.5 µg/mL,4 µg/mL,1 µg/mL,> 32 µg/mL,1 µg/mL,0.5 µg/mL,< 0.06 µg/mL,MIC (Staphylococcus aureus [8]): 0.5 µg/mL; MIC (Staphylococcus aureus [17]): > 32 µg/mL; MIC (Streptococcus suis [18]): > 32 µg/mL
CC(C)CCCCC(=O)N[C@@H](CCN)C(=O)N[C@@H](CN[C@@H](CCN)C(=O)N[C@H]1CCNC(=O)[C@H]([C@@H](C)O)NC(=O)[C@H](CCN)NC(=O)[C@H](CCN)NC(=O)[C@H](CC(C)C)NC(=O)[C@@H](CC(C)C)NC(=O)[C@H](CCN)NC1=O)[C@@H](C)O.CCC(C)CCCCC(=O)N[C@@H](CCN)C(=O)N[C@@H](CN[C@@H](CCN)C(=O)N[C@H]1CCNC(=O)[C@H]([C@@H](C)O)NC(=O)[C@H](CCN)NC(=O)[C@H](CCN)NC(=O)[C@H](CC(C)C)NC(=O)[C@@H](CC(C)C)NC(=O)[C@H](CCN)NC1=O)[C@@H](C)O (stereo partly drawn) (H-[X1]([Dab-Octanoyl(6-Me)])[Dab][Dab][dL]L[Dab][Dab]T; lactam 2-C),,,,< 0.06 µg/mL,,0.5 µg/mL,,0.125 µg/mL,,,,8 µg/mL,,,,,,,0.5 µg/mL,< 0.06 µg/mL,MIC (Escherichia coli): 1 µg/mL
CC1(C)S[C@@H]2[C@H](NC(=O)[C@H](N)c3ccccc3)C(=O)N2[C@H]1C(=O)O [AMPICILLIN],2 µg/mL,16 µg/mL,32 µg/mL,> 32 µg/mL,1 µg/mL,32 µg/mL,,> 32 µg/mL,0.5 µg/mL,> 32 µg/mL,> 32 µg/mL,< 0.06 µg/mL,16 µg/mL,1 µg/mL,≤ 0.5 µg/mL,1 µg/mL,16 µg/mL,0.5 µg/mL,> 32 µg/mL,> 32 µg/mL,
C[C@H]1[C@H](NC(=O)/C(=N\OC(C)(C)C(=O)O)c2csc(N)n2)C(=O)N1S(=O)(=O)O [AZTREONAM],,,,> 32 µg/mL,,2 µg/mL,,2 µg/mL,,,,> 32 µg/mL,,,,,,,2 µg/mL,4 µg/mL,MIC (Escherichia coli): 0.25 µg/mL
CO[C@@]1(NC(=O)Cc2cccs2)C(=O)N2C(C(=O)O)=C(COC(N)=O)CS[C@@H]21 [CEFOXITIN],2 µg/mL,> 32 µg/mL,> 32 µg/mL,> 32 µg/mL,8 µg/mL,32 µg/mL,> 32 µg/mL,> 32 µg/mL,16 µg/mL,32 µg/mL,> 32 µg/mL,16 µg/mL,> 32 µg/mL,4 µg/mL,1 µg/mL,1 µg/mL,> 32 µg/mL,1 µg/mL,> 32 µg/mL,> 32 µg/mL,MIC (Staphylococcus aureus [8]): 4 µg/mL; MIC (Escherichia coli): 0.25 µg/mL; MIC (Staphylococcus aureus [17]): 4 µg/mL; MIC (Streptococcus suis [18]): 8 µg/mL
O=C(O)c1cn(C2CC2)c2cc(N3CCNCC3)c(F)cc2c1=O [CIPROFLOXACIN],0.25 µg/mL,0.5 µg/mL,8 µg/mL,,1 µg/mL,,16 µg/mL,,16 µg/mL,4 µg/mL,0.5 µg/mL,,> 32 µg/mL,0.5 µg/mL,0.125 µg/mL,1 µg/mL,2 µg/mL,1 µg/mL,,,MIC (Streptococcus suis [18]): 16 µg/mL
CC[C@H]1OC(=O)[C@H](C)[C@@H](O[C@H]2C[C@@](C)(OC)[C@@H](O)[C@H](C)O2)[C@H](C)[C@@H](O[C@@H]2O[C@H](C)C[C@H](N(C)C)[C@H]2O)[C@](C)(O)C[C@@H](C)C(=O)[C@H](C)[C@@H](O)[C@]1(C)O [ERYTHROMYCIN],> 32 µg/mL,0.25 µg/mL,> 32 µg/mL,,2 µg/mL,,> 32 µg/mL,,> 32 µg/mL,> 32 µg/mL,> 32 µg/mL,,> 32 µg/mL,> 32 µg/mL,0.125 µg/mL,1 µg/mL,> 32 µg/mL,> 32 µg/mL,,,MIC (Staphylococcus aureus [8]): > 32 µg/mL; MIC (Staphylococcus aureus [17]): > 32 µg/mL; MIC (Streptococcus suis [18]): > 32 µg/mL
C[C@H]1COc2c(N3CCN(C)CC3)c(F)cc3c(=O)c(C(=O)O)cn1c23 [LEVOFLOXACIN ANHYDROUS],,,,> 32 µg/mL,,0.5 µg/mL,,0.5 µg/mL,,,,0.125 µg/mL,,,,,,,> 32 µg/mL,0.125 µg/mL,MIC (Escherichia coli): 0.125 µg/mL
C[C@@H](O)[C@H]1C(=O)N2C(C(=O)O)=C(S[C@@H]3CN[C@H](C(=O)N(C)C)C3)[C@H](C)[C@H]12 [MEROPENEM],,,,> 32 µg/mL,,0.25 µg/mL,,0.5 µg/mL,,,,< 0.06 µg/mL,,,,,,,4 µg/mL,0.5 µg/mL,MIC (Escherichia coli): 0.25 µg/mL
CN[C@H](CC(C)C)C(=O)N[C@H]1C(=O)N[C@@H](CC(N)=O)C(=O)N[C@H]2C(=O)N[C@H]3C(=O)N[C@H](C(=O)N[C@H](C(=O)O)c4cc(O)cc(O)c4-c4cc3ccc4O)[C@H](O)c3ccc(c(Cl)c3)Oc3cc2cc(c3O[C@@H]2O[C@H](CO)[C@@H](O)[C@H](O)[C@H]2O[C@H]2C[C@](C)(N)[C@H](O)[C@H](C)O2)Oc2ccc(cc2Cl)[C@H]1O [VANCOMYCIN],16 µg/mL,2 µg/mL,,,,,2 µg/mL,,0.125 µg/mL,< 0.06 µg/mL,2 µg/mL,,16 µg/mL,,< 0.06 µg/mL,,,< 0.06 µg/mL,,,MIC (Streptococcus suis [18]): < 0.06 µg/mL
